#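 96-well plates; 48 h exposure; 5 concentrations. Endpoints by linear interpolation between flanking doses. Not reached: highest tested concentration assigned. Abbreviation: GI50, concentration required for 50% inhibition of growth.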 Active and inactive are the calls of the source. No stated cut-off is given here; in the data, active = GI50 up to about 1.1 µM and inactive = higher.
# What was measured:
# Test in all cases: NCI-60 cell line screen, 48 h
# [1] = test system: SNB-19
# [2] = test system: OVCAR-3
# [3] = test system: SF-268
# [4] = test system: OVCAR-4
# [5] = test system: COLO 205
# [6] = test system: HCT-15
# [7] = test system: Malme-3M
# [8] = test system: SK-MEL-5
# [9] = test system: HCT-116
# [10] = test system: TK-10
# [11] = test system: PC-3
# [12] = test system: CAKI-1
# [13] = test system: OVCAR-5
# [14] = test system: U-251
# [15] = test system: KM12
# [16] = test system: SK-MEL-28
# [17] = test system: SR
# [18] = test system: SNB-75
# [19] = test system: OVCAR-8
# [20] = test system: MCF7
# [21] = test system: SF-295
# [22] = test system: 786-0
# [23] = test system: UACC-62
# [24] = test system: IGROV-1
# [25] = test system: M14
# [26] = test system: HT-29
# [27] = test system: RXF 393
# [28] = test system: SF-539
# [29] = test system: UO-31
# [30] = test system: A549
# [31] = test system: MDA-N
# [32] = test system: SW-620
# [33] = test system: T47D
# [34] = test system: NCI-H23
# [35] = test system: MDA-MB-231
# [36] = test system: HOP-92
# [37] = test system: DU-145
# [38] = test system: HCC 2998
# [39] = test system: HL-60
# [40] = test system: SN12C
# [41] = test system: SK-MEL-2
# [42] = test system: NCI/ADR-RES
# [43] = test system: NCI-H226
# [44] = test system: NCI-H522
# [45] = test system: UACC-257
# [46] = test system: BT-549
# [47] = test system: MDA-MB-435
# [48] = test system: RPMI-8226
smiles,measurement,setting,value
ClCc1c(-c2ccccc2)nn(-c2ccccc2)c1CCl,GI50,[1],18.6 µM (inactive)
same,GI50,[2],13.5 µM (inactive)
same,GI50,[3],16.6 µM (inactive)
same,GI50,[4],1.65 µM (inactive)
same,GI50,[5],5.94 µM (inactive)
same,GI50,[6],12.2 µM
same,GI50,[7],16.4 µM (inactive)
same,GI50,[8],12.4 µM (inactive)
same,GI50,[9],8.09 µM (inactive)
same,GI50,[10],14.6 µM (inactive)
same,GI50,[11],9.71 µM (inactive)
same,GI50,[12],1.83 µM (inactive)
same,GI50,[13],19.4 µM (inactive)
same,GI50,[14],12.3 µM (inactive)
same,GI50,[15],13.2 µM (inactive)
same,GI50,[16],15.6 µM (inactive)
same,GI50,[17],2.33 µM (inactive)
same,GI50,[18],4.18 µM (inactive)
same,GI50,[19],14.2 µM (inactive)
same,GI50,[20],8.2 µM (inactive)
same,GI50,[21],17.2 µM (inactive)
same,GI50,[22],9.59 µM (inactive)
same,GI50,[23],7.18 µM (inactive)
same,GI50,[24],6.79 µM (inactive)
same,GI50,[25],15.4 µM (inactive)
same,GI50,[26],9.75 µM (inactive)
same,GI50,[27],12.4 µM (inactive)
same,GI50,[28],16.1 µM (inactive)
same,GI50,[29],20.1 µM (inactive)
same,GI50,[30],16.5 µM (inactive)
same,GI50,[31],10.7 µM (inactive)
same,GI50,[32],2.03 µM (inactive)
same,GI50,[33],2 µM (inactive)
same,GI50,[34],15.6 µM (inactive)
same,GI50,[35],> 10 µM (inactive)
same,GI50,[36],2.81 µM (inactive)
same,GI50,[37],14 µM (inactive)
same,GI50,[38],13.9 µM (inactive)
same,GI50,[39],3.14 µM (inactive)
same,GI50,[40],19.4 µM (inactive)
same,GI50,[41],13.2 µM (inactive)
same,GI50,[42],29.4 µM (inactive)
same,GI50,[43],26.5 µM (inactive)
same,GI50,[44],0.165 µM (active)
same,GI50,[45],15.3 µM (inactive)
same,GI50,[46],> 10 µM (inactive)
same,GI50,[47],1.78 µM (inactive)
same,GI50,[48],2.26 µM (inactive)

# Reference: ChEMBL document CHEMBL1201862, “PubChem BioAssay data set” (2004)
